Series [1] concerns bed bugs. Kind of series: Repellency to bed bugs, general finding. The class given is in vivo. Conditions: with or without additional insecticidal active ingredient, any DMSO concentration.
The test system of series [2] is bed bugs. Kind of series: Contact toxicity to bed bugs, general findings in the description. The series is classed as in vivo.
Series [3] deals with bed bugs. Kind of series: Toxicity and durability of toxicity of undiluted DMSO on filter paper in arenas (Example 1A). The series is classed as in vivo. The protocol: 0.1 milliliters of Fisher Biotech Molecular Biology Grade 99.7% DMSO (CAS#67-68-5) was applied to each of five 3.5 cm diameter disks of Fisherbrand Qualitative P8 filter paper. […] The arenas were placed in an incubator set to maintain a temperature of 22° C.
At the end of 24 hours, timed from the initial placement of the bed bugs on the filter papers, all of the arenas were removed from the incubator and opened and the bed bugs were examined. […] The bed bugs in the control jar were all still alive.
Without removing the filter paper, the dead bed bugs in the 5 arenas were removed and replaced by the same number (10) of live bed bugs in each arena. The arenas were again placed in the incubator and re-examined 24 hours later. The replacement bed bugs in the 5 arenas were also all dead.
All of the bed bugs in the control jar were all still alive at the end of the last testing interval.

The subject of a further series is humans and animals. The following applies: even when applied directly to a subject's skin; cited from earlier work.

Consider `C[S+](C)[O-]` [DMSO, dimethyl sulfoxide], for which the repellency effects entry in the series on bed bugs [1] is “not accompanied by any repellency effects”. For the same compound, in the series with bed bugs [2] (DMSO alone, no insecticidal active ingredient or synergist), the “toxicity to bed bugs upon contact” value is recorded as “highly toxic to bed bugs upon contact”. In addition, the “bed bug mortality at end of 24 hours” value in the series on bed bugs [3] (0.1 mL 99.7% DMSO on 3.5 cm filter paper, 5 arenas, 10 bed bugs each, 22° C., first 24 hours) is “All of the bed bugs in all 5 of the jars containing DMSO treated filter paper were dead”. In addition, the “mortality at end of each 24 hour interval, three more replications” value in the series with bed bugs [3] (same filter paper, replications 3 to 5 at 24 hour intervals) is on record as “all bed bugs found to be dead”. In the series with bed bugs [3] (same filter paper, second 24 hour interval, 10 live bed bugs per arena), the “mortality of replacement bed bugs 24 hours later” value is listed as “also all dead”. The “toxicity in exposure to humans and animals” value in the series on humans and animals is given as “low toxicity”.

For `CCCCCCCCCCCCN1CCCCCC1=O` [laurocapram, reference compound], the toxicity-enhancing characteristics result in the series with bed bugs [2] (as penetration enhancer in insecticidal formulations) was “exhibits toxicity-enhancing characteristics similar to DMSO”.

Source of the values: patent US9763443B2, “Control of bed bugs” (Ensystex Inc., priority 2011, dated 2017).
